Counter-ions that a name gives are not always drawn.
target: AaDOP2 (Aedes aegypti, UniProt H6D5H2); test: AaDOP2 antagonist screen of the LOPAC1280 library (HEK-CRELuc-Aadop2 cells, luminescence); type: cell-based; details: not given
Sequence (H6D5H2 1-476): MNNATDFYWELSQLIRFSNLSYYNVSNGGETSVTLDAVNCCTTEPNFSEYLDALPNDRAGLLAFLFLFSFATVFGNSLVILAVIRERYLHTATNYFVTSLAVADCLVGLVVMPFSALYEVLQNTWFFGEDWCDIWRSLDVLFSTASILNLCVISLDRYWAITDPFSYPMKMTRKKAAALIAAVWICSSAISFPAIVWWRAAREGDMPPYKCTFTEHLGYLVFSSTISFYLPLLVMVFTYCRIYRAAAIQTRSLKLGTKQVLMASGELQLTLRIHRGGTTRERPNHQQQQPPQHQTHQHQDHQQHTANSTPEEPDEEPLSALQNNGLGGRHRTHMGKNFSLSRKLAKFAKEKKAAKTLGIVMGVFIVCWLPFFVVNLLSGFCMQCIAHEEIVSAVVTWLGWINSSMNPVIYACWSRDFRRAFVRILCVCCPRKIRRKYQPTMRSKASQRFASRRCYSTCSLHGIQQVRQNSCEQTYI

Going from MHPG piperazine [Compound 577] to C=CCN1CC[C@]23c4c5ccc(O)c4O[C@@H]2/C(=N/N=C2\CC[C@@]4(O)C6Cc7ccc(O)c8c7[C@@]4(CCN6CC=C)[C@@H]2O8)CC[C@@]3(O)C1C5.Cl.Cl [Compound 891, Naloxonazine dihydrochloride], the “Compound effect (percent receptor signaling in presence of test compound, relative lux units relative to the SCH23390 control)” value falls from 104 to 86.

Compared with O=c1cc(-c2ccc(O)cc2)oc2cc(O)cc(O)c12 [Compound 39, Apigenin], CO[C@@]1(NC(=O)CSCC#N)C(=O)N2C(C(=O)O)=C(CSc3nnnn3C)CS[C@@H]21 [Compound 283, Cefmetazole sodium] is higher in “Compound effect (percent receptor signaling in presence of test compound, relative lux units relative to the SCH23390 control)” value: 21 for the first, 74 for the second.

Going from C[C@@H](NC(=O)/C(C#N)=C/c1ccc(O)c(O)c1)c1ccccc1 [Compound 1174, Tyrphostin AG 527] to CCCn1c(=O)c2[nH]c(-c3ccc(S(=O)(=O)O)cc3)nc2n(CCC)c1=O [Compound 119, 1,3-Dipropyl-8-p-sulfophenylxanthine], the “Compound effect (percent receptor signaling in presence of test compound, relative lux units relative to the SCH23390 control)” value rises from 81 to 91.

Going from COC[C@H]1OC(=O)c2coc3c2[C@@]1(C)C1=C(C3=O)[C@@H]2CCC(=O)[C@@]2(C)C[C@H]1OC(C)=O [Compound 1261, Wortmannin from Penicillium funiculosum] to Nc1ccc(N2C(=O)c3ccccc3C2=O)c(Cl)c1 [Compound 104, N-(4-Amino-2-chlorophenyl)phthalimide], the “Compound effect (percent receptor signaling in presence of test compound, relative lux units relative to the SCH23390 control)” value rises from 42 to 99.

Going from Cc1[nH]c(=O)c(C#N)cc1-c1ccncc1 [Compound 770, Milrinone] to O=C(O)[C@@H]1C[C@H](C(=O)O)N1 [Compound 145, cis-Azetidine-2,4-dicarboxylic acid], the “Compound effect (percent receptor signaling in presence of test compound, relative lux units relative to the SCH23390 control)” value rises from 104 to 112.

Compared with S(-)-Timolol maleate [Compound 1191], c1ccc2c(c1)CCCC2C1=NCCN1 (stereo not drawn) [Compound 1170, Tetrahydrozoline hydrochloride] is higher in “Compound effect (percent receptor signaling in presence of test compound, relative lux units relative to the SCH23390 control)” value: 88 for the first, 102 for the second.

First: CC(N)Cc1c[nH]c2ccc(OCc3cccs3)cc12 (stereo not drawn) [Compound 214, BW 723C86]
Second: Cc1cccc(C)c1N=C1NCCCS1 [Compound 1269, Xylazine hydrochloride]
The “Compound effect (percent receptor signaling in presence of test compound, relative lux units relative to the SCH23390 control)” value of the first is lower: 92 for the first, 134 for the second.

Compared with C1COC(NC(C2CC2)C2CC2)=N1 [Compound 1071, Rilmenidine hemifumarate], N#CC(C#N)=Cc1cc(O)c(O)c(O)c1 [Compound 1199, Tyrphostin 25] is lower in “Compound effect (percent receptor signaling in presence of test compound, relative lux units relative to the SCH23390 control)” value: 114 for the first, 113 for the second.

First: OC1(c2ccc(Cl)cc2)CCN(Cc2c[nH]c3ccccc23)CC1 [Compound 731, L-741,626]
Second: CN1C2CCC1CC(OC(c1ccc(F)cc1)c1ccc(F)cc1)C2.Cl (stereo not drawn) [Compound 468, 4',4''-Difluor-3alpha-(diphenylmethoxy)tropane hydrochloride]
The “Compound effect (percent receptor signaling in presence of test compound, relative lux units relative to the SCH23390 control)” value of the first is lower: 104 for the first, 123 for the second.

same assay, conditions: 10 µM compound, 300 nM dopamine, 2 hr; hit = compound effect <20

First: O=C([O-])c1cc2cc(Cc3cccnc3)ccc2o1.[Na+] [Compound 516, Furegrelate sodium]
Second: IMID-4F hydrochloride [Compound 639]
The “Compound effect (percent receptor signaling in presence of test compound, relative lux units relative to the SCH23390 control)” value of the first is higher: 146% for the first, 109% for the second.

N[C@@H](Cc1ccc(F)cc1)C(=O)O [Compound 519, p-Fluoro-L-phenylalanine] was tested, and the “Compound effect (percent receptor signaling in presence of test compound, relative lux units relative to the SCH23390 control)” value was 97%.
